Experimental findings from ChEMBL document CHEMBL5131522, “3-Pyrrolidine-indole Derivatives as 5-HT2-Selective Receptor Modulators for the Potential Treatment of Mental Disorders” (ACS Med Chem Lett, 2022) are described below.

For the assay, the target named is 5-hydroxytryptamine receptor 2A (Homo sapiens, UniProt P28223). Briefly: Agonist activity at human 5-HT2A receptor expressed in cells assessed as increase in calcium mobilization by Calcium-6 dye based FLIPR assay. In kind it is functional, cell-based. In general terms: Calcium assays in cells follow changes in intracellular calcium, usually with a dye or a luminescent sensor.
Chain of 5-hydroxytryptamine receptor 2A (P28223 whole entry): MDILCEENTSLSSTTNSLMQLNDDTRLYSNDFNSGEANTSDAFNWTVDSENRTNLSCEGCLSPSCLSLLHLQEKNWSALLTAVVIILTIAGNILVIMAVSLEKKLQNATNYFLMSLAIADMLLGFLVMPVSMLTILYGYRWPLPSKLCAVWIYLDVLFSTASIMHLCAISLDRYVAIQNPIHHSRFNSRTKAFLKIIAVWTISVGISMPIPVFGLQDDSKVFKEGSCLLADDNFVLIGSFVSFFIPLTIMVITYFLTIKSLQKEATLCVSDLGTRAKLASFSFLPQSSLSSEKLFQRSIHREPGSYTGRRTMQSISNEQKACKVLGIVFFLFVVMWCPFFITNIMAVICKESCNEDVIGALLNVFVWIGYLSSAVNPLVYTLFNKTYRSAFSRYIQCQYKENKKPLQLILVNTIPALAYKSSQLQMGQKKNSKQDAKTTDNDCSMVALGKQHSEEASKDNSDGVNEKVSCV

For `[2H]C([2H])(c1c[nH]c2cccc(F)c12)[C@H]1CCCN1`, the EC50 (usually the concentration giving half of the maximal effect) is 1000 nM. The figure for `[2H]C([2H])([2H])N1CCC[C@H]1Cc1c[nH]c2cccc(OCc3ccccc3)c12` is under 10000 nM; for `[2H]C([2H])(c1c[nH]c2cccc(O)c12)[C@H]1CCCN1C([2H])([2H])[2H]` it is under 1000 nM. As for `[2H]C([2H])([2H])N1CCC[C@@H]1Cc1c[nH]c2cccc(F)c12`, the concentration giving a half-maximal response (EC50) is under 1000 nM.

Turning to `[2H]C([2H])([2H])N1CCC[C@@H]1Cc1c[nH]c2cccc(O)c12`, the half-maximal effective concentration (EC50) was under 1000 nM.

Regarding `Oc1cccc2[nH]cc(C[C@H]3CCCN3)c12`, the EC50 was under 1000 nM.

Take `[2H]C([2H])(c1c[nH]c2cccc(OC)c12)[C@H]1CCCN1C([2H])([2H])[2H]`: the 50% effective concentration (EC50) was under 1000 nM.

Consider `CN1CCC[C@@H]1Cc1c[nH]c2cccc(O)c12`, for which the EC50 is under 1000 nM. The figure for `[2H]C([2H])(c1c[nH]c2cccc(O)c12)[C@@H]1CCCN1` is under 1000 nM. In the case of `[2H]C([2H])(c1c[nH]c2cccc(F)c12)[C@H]1CCCN1C([2H])([2H])[2H]`, the concentration for a half-maximal effect (EC50) was under 1000 nM.
